Experiment: mn = molality of the nth substance listed, in mol/kg
Details: 101 kPa, Liquid; for molar conductivity: Alternating current cell with electrodes

O=C[O-].[K+] [potassium formate] + O
Details | mass density, 298.15 K [kg/m3] | molar conductivity, 278.15 K [S·m2/mol] | molar conductivity, 283.15 K [S·m2/mol] | molar conductivity, 288.15 K [S·m2/mol] | molar conductivity, 293.15 K [S·m2/mol] | molar conductivity, 298.15 K [S·m2/mol] | molar conductivity, 303.15 K [S·m2/mol] | molar conductivity, 308.15 K [S·m2/mol] | molar conductivity, 313.15 K [S·m2/mol]
m1 = 0.0003498 | – | 0.007906 | 0.009019 | 0.01018 | 0.01138 | 0.0126 | 0.01387 | 0.01516 | 0.01649
m1 = 0.0006599 | – | 0.007826 | 0.008931 | 0.01008 | 0.01128 | 0.01251 | 0.01377 | 0.01502 | 0.01632
m1 = 0.001026 | – | 0.007789 | 0.008888 | 0.01003 | 0.01121 | 0.01245 | 0.01371 | 0.015 | 0.01628
m1 = 0.001412 | – | 0.007752 | 0.008844 | 0.009984 | 0.01117 | 0.01239 | 0.01365 | 0.01494 | 0.01622
m1 = 0.001766 | – | 0.007701 | 0.008787 | 0.009919 | 0.0111 | 0.01231 | 0.01356 | 0.01485 | 0.01614
m1 = 0.002217 | – | 0.007674 | 0.008755 | 0.009886 | 0.01106 | 0.01226 | 0.01351 | 0.0148 | 0.01608
m1 = 0.002823 | – | 0.007653 | 0.008729 | 0.009852 | 0.01102 | 0.01223 | 0.01348 | 0.01476 | 0.01606
m1 = 0.003432 | – | 0.007632 | 0.008706 | 0.009826 | 0.01099 | 0.0122 | 0.01344 | 0.01472 | 0.01601
m1 = 0.00406 | – | 0.007611 | 0.008682 | 0.0098 | 0.01097 | 0.01217 | 0.01341 | 0.01468 | 0.01596
m1 = 0.004815 | – | 0.007596 | 0.008665 | 0.00978 | 0.01094 | 0.01214 | 0.01338 | 0.01465 | 0.01593
m1 = 0.005831 | 997.346 | 0.007573 | 0.008637 | 0.009748 | 0.01091 | 0.0121 | 0.01333 | 0.0146 | 0.01587
m1 = 0.1219 | 1002.91 | – | – | – | – | – | – | – | –

O=CO [formic acid] + O
Details | mass density, 298.15 K [kg/m3] | molar conductivity, 278.15 K [S·m2/mol] | molar conductivity, 283.15 K [S·m2/mol] | molar conductivity, 288.15 K [S·m2/mol] | molar conductivity, 293.15 K [S·m2/mol] | molar conductivity, 298.15 K [S·m2/mol] | molar conductivity, 303.15 K [S·m2/mol] | molar conductivity, 308.15 K [S·m2/mol] | molar conductivity, 313.15 K [S·m2/mol]
m1 = 0.0002709 | – | 0.0149 | 0.0165 | 0.018 | 0.01947 | 0.02084 | 0.02214 | 0.0233 | 0.0242
m1 = 0.0005657 | – | 0.0113 | 0.0125 | 0.0138 | 0.0149 | 0.0161 | 0.0171 | 0.018 | 0.0189
m1 = 0.0008298 | – | 0.00971 | 0.0108 | 0.0119 | 0.0129 | 0.0139 | 0.0149 | 0.0157 | 0.0164
m1 = 0.001094 | – | 0.00867 | 0.00965 | 0.0106 | 0.0115 | 0.0124 | 0.0133 | 0.0141 | 0.0147
m1 = 0.001442 | – | 0.00773 | 0.00862 | 0.00948 | 0.0103 | 0.0111 | 0.0119 | 0.0126 | 0.0132
m1 = 0.001825 | – | 0.0069 | 0.00768 | 0.00845 | 0.0092 | 0.00991 | 0.0106 | 0.0112 | 0.0117
m1 = 0.002222 | – | 0.00636 | 0.00709 | 0.00781 | 0.0085 | 0.00917 | 0.00981 | 0.0104 | 0.0109
m1 = 0.002648 | – | 0.00593 | 0.00661 | 0.00727 | 0.0079 | 0.00851 | 0.00907 | 0.00959 | 0.0101
m1 = 0.003208 | – | 0.00548 | 0.00611 | 0.00673 | 0.00733 | 0.00791 | 0.00845 | 0.00894 | 0.00939
m1 = 0.003957 | – | 0.00505 | 0.00563 | 0.0062 | 0.00675 | 0.00729 | 0.00779 | 0.00824 | 0.00866
m1 = 0.004898 | 997.113 | 0.00463 | 0.00517 | 0.0057 | 0.00621 | 0.0067 | 0.00717 | 0.0076 | 0.00799
m1 = 0.1291 | 998.53 | – | – | – | – | – | – | – | –

O=C[O-].[Na+] [sodium methanoate] + O
Details | mass density, 298.15 K [kg/m3] | molar conductivity, 278.15 K [S·m2/mol] | molar conductivity, 283.15 K [S·m2/mol] | molar conductivity, 288.15 K [S·m2/mol] | molar conductivity, 293.15 K [S·m2/mol] | molar conductivity, 298.15 K [S·m2/mol] | molar conductivity, 303.15 K [S·m2/mol] | molar conductivity, 308.15 K [S·m2/mol] | molar conductivity, 313.15 K [S·m2/mol]
m1 = 0.0002873 | – | 0.00626 | 0.007191 | 0.008167 | 0.009185 | 0.01025 | 0.01134 | 0.01247 | 0.01358
m1 = 0.0003841 | – | 0.006215 | 0.007142 | 0.00813 | 0.009157 | 0.01022 | 0.01133 | 0.01246 | 0.01356
m1 = 0.0005247 | – | 0.006187 | 0.007111 | 0.008093 | 0.009118 | 0.01018 | 0.01128 | 0.01243 | 0.01351
m1 = 0.0005682 | – | 0.006178 | 0.007106 | 0.008083 | 0.009103 | 0.01017 | 0.01126 | 0.01238 | 0.01348
m1 = 0.0006608 | – | 0.006158 | 0.007081 | 0.008058 | 0.009078 | 0.01014 | 0.01124 | 0.01237 | 0.01347
m1 = 0.0008201 | – | 0.006134 | 0.007053 | 0.008027 | 0.009042 | 0.0101 | 0.0112 | 0.01234 | 0.01345
m1 = 0.0008629 | – | 0.006107 | 0.007049 | 0.008019 | 0.009031 | 0.01009 | 0.01118 | 0.01231 | 0.01344
m1 = 0.0009581 | – | 0.006095 | 0.007021 | 0.007988 | 0.009 | 0.01005 | 0.01115 | 0.01228 | 0.01341
m1 = 0.001119 | – | 0.006088 | 0.007002 | 0.007965 | 0.008975 | 0.01002 | 0.01111 | 0.01224 | 0.0134
m1 = 0.001188 | – | 0.006075 | 0.007 | 0.007964 | 0.008973 | 0.01002 | 0.01111 | 0.01224 | 0.01338
m1 = 0.001257 | – | 0.006054 | 0.006986 | 0.007948 | 0.008957 | 0.01001 | 0.0111 | 0.01223 | 0.01337
m1 = 0.001548 | – | 0.006043 | 0.006974 | 0.007934 | 0.008938 | 0.009988 | 0.01107 | 0.01219 | 0.01332
m1 = 0.001921 | – | 0.006045 | 0.006953 | 0.007912 | 0.008914 | 0.009962 | 0.01105 | 0.01216 | 0.01327
m1 = 0.002391 | – | 0.006033 | 0.006939 | 0.007896 | 0.008898 | 0.009943 | 0.01103 | 0.01213 | 0.01325
m1 = 0.003024 | – | 0.006025 | 0.006923 | 0.007876 | 0.008874 | 0.009917 | 0.011 | 0.0121 | 0.0132
m1 = 0.003744 | – | 0.006001 | 0.006901 | 0.007852 | 0.008827 | 0.009883 | 0.01096 | 0.01205 | 0.01315
m1 = 0.004567 | – | 0.00598 | 0.006877 | 0.007823 | 0.008811 | 0.009845 | 0.01092 | 0.01202 | 0.01313
m1 = 0.005591 | 997.307 | 0.005949 | 0.006841 | 0.007783 | 0.008767 | 0.009794 | 0.01086 | 0.01196 | 0.01306
m1 = 0.1222 | 1002.23 | – | – | – | – | – | – | – | –
